Here are results for 11 compounds from patent publication US4211876A, “3-Pyrazolidinone carboxamides” (E. I. Du Pont de Nemours and Company, priority 1979, dated 1980).

≈ marks a conversion by molar mass, not a printed value.

In series [1] the test system is rat stomach strip (fundus), contraction caused by PGE1. The series can be described thus: rat stomach assay: PGE1 antagonism, inhibition of PGE1-induced contraction of rat stomach fundus muscle strips. It counts as cell-based. The settings on record: Tyrode solution pH 7.1, 37°, PGE1 at concentration causing about 25% of maximum response; for IC50: Rattus norvegicus, pH 7.1, rat stomach fundus strip, read-out: PGE1 Antagonist IC50. How it is done: J. Pharmacol. 12, 344 (1957)]. Male rats are decapitated and a strip is cut from the fundus of the stomach along the greater curvature. The strip (3 to 5 mm wide and 3 to 4 cm long) is suspended in Tyrode solution at pH 7.1 and 37° and gassed continuously with oxygen. Responses of the muscle are monitored isometrically by means of a strain gauge transducer. The above table lists for several compounds of this invention the concentration in μg/ml required to inhibit by 50% the contraction of muscle strips caused by a concentration of PG1 that normally causes about 25% of maximum responses ([…]). Some of the carboxamides were also run against higher concentration of PGE1 and gave greater IC50 values.

Series [2] concerns ethanol-induced gastric ulcer. In words: ethanol-induced gastric ulcer test in rats (gastric cytoprotection). The class given is in vivo, rat. Conditions: for protection against ulcers: 2.0 mg/kg. As for the experimental part: One of these compounds is the tert-butylcarboxamide 7 of Example 3. In a test designed to detect gastric cytoprotectin [Robert, U.S. Pat. No. 4,097,603], compound 7 inhibited ethanol-induced gastric ulcer to the extent of about 50 % when administered orally to rats at 2 mg/kg. Under similar conditions 0.5 mg/kg of PGE1 inhibited ulcer formation to the extent of 80%. […] At 2.0 mg/kg compound 14 of Example 7 gave about 18% protection and compound 16 of Example 8 gave about 27% protection against ulcers.

Series [3] in a line: pKa measured in 1:1 ethanol/water. It counts as physicochemical. Conditions: p-toluenesulfonate salt. How it is done:
This iodamide was treated with pyrazolidinone 6 by a procedure analogous to that used for the synthesis of 10, Example 4b. The crude product 15, was obtained as an oil in 94% yield. A solution of 6.84 g of 15 in 3 ml of dry acetonitrile was added to a solution of 3.39 g of p-toluenesulfonic acid in 26 ml of dry acetonitrile, giving 5.12 g (66%) of salt 16, mp 123°-126°. Recrystallization from acetonitrile gave analytically pure salt 16, mp 129°-130.5°; Anal. calcd. for C28 H49 N3 SO6 : C, 60.51; H, 8.89; N, 7.56; found C, 60.50; H, 8.75; N, 7.89.

Series [4] can be described thus: side effects after oral administration to rats. It counts as in vivo, rat.
[5] abbreviates: rats, oral, doses as high as 300 mg/kg.

Regarding `CCCCCC(O)CCN1C(=O)CCN1CCCCCCC(=O)NC(C)(C)CC` (stereo not drawn) [Compound 12, N(1,1-Dimethylpropyl)7-[3-oxo-2(3-hydroxy-n-octyl)pyrazolidin-1-yl]heptanamide], in series [1], the IC50 (usually the concentration needed to halve the response being measured) is 5 µg/mL (≈ 12.1 µM).
With `CCCCCC(O)CCN1C(=O)CCN1CCCCCCC(=O)NC` (stereo not drawn) [Compound 17, N-methyl-7[3-oxo-2(hydroxy-n-octyl)pyrazolidin-1-yl]heptanamide], in series [1], the concentration for half-maximal inhibition (IC50) came out at 175 µg/mL (≈ 492 µM).
The same measure, in the same setting: as for `CCCCCC(O)CCN1C(=O)CCN1CCCCCCC(=O)N(C(C)C)C(C)C` (stereo not drawn) [Compound 13, N,N(Diisopropyl)7-[3-oxo-2(3-hydroxy-n-octyl)-pyrazolidin-1-yl]heptanamide], the figure is 20 µg/mL (≈ 47 µM).
Still for that read-out and setting: the result for `CCCCCC(O)CCN1C(=O)CCN1CCCCCCC(=O)NCC(C)(C)C` (stereo not drawn) [Compound 10, N(2,2-Dimethylpropyl)7[3-oxo-2(3-hydroxy-n-octyl)-pyrazolidin-1-yl]heptanamide] reads 3 to 5 µg/mL (≈ 7.29 to 12.1 µM).
The same measure, in the same setting: as for `CCCCCC(O)CCN1CCC(=O)N1CCCCCCC(=O)NC(C)(C)CC` (stereo not drawn) [Compound 5, N(tert-Amyl)7[3-oxo-1(3-hydroxy-n-octyl)pyrazolidin-2-yl]heptanamide], the figure is 25 µg/mL (≈ 60.7 µM).
As for `CCCCCC(O)CCN1C(=O)CCN1CCCCCCC(=O)NC(C)(C)CC(C)(C)C` (stereo not drawn) [Compound 14, N(1,1,3,3,-Tetramethyl-n-butyl)7[3-oxo-2(3-hydroxy-n-octyl)pyrazolidin-1-yl]heptanamide], the IC50 in series [1] turned out to be 2 µg/mL (≈ 4.41 µM). The protection against ulcers entry in series [2] was “about 18%”.
With `CCCCCC(O)CCN1C(=O)CCN1CCCCCCC(=O)NC(C)(C)C` (stereo not drawn) [Compound 9, N(tert-Butyl)7[3-oxo-2-(3-hydroxy-n-octyl)pyrazolidin-1-yl]heptanamide], the “PGE1 Antagonist IC50” value in series [1] (rat stomach fundus strip) was 60 µg/mL.
`CCCCCC(O)CCN1C(=O)CCN1CCCCCCC(=O)NC(C)C` (stereo not drawn) [Compound 16, N(iso-Propyl)7[3-oxo-2(3-hydroxy-n-octyl)pyrazolidin-1-yl]heptanamide]: in series [3], the pKa (usually the pH at which an ionisable group is half protonated) was 3.25. Moreover, in series [1], the IC50 was 75 µg/mL (≈ 196 µM). The protection against ulcers entry in series [2] is “about 27%”.
With `CCCCCC(O)CCN1CCC(=O)N1CCCCCCC(=O)NC(C)(C)C` (stereo not drawn) [Compound 1, N-(tert-butyl)-7[3-oxo-1(3-hydroxy-n-octyl)pyrazolidin-2-yl]heptanamide], in series [1], the half-maximal inhibitory concentration (IC50) was determined as 60 µg/mL (≈ 151 µM).
As to `CCCCC[C@H](O)/C=C/[C@H]1[C@H](O)CC(=O)[C@@H]1CCCCCCC(=O)O` [PGE1, reference compound], in series [2] (similar conditions, 0.5 mg/kg), the “inhibition of ulcer formation” value was found to be 80%.
Turning to `CCCCCC(O)CCN1C(=O)CCN1CCCCCCC(=O)NC(C)(C)C` (stereo not drawn) [Compound 7, N(tert-Butyl)7[3-oxo-2-(3-hydroxy-n-octyl)pyrazolidin-1-yl]heptanamide], the IC50 in series [1] was 33 µg/mL (≈ 83 µM). For the same compound, the “overt prostaglandin-like side effects” value in series [4] (rat, in vivo, po) is “no overt prostaglandin-like side effects”. In series [4] (setting [5]), the diarrhea entry is given as “no mortality or diarrhea” and the mortality result was “no mortality”. In series [2] (oral, 2 mg/kg), the “inhibition of ethanol-induced gastric ulcer” value is recorded as “about 50%”.
